Calls of active or inactive are those of the source. The rule behind the calls is not given here.
How the values were obtained:
[1] = system: Human immunodeficiency virus 1; assay: Compound was tested for anti HIV-1 and cytopathic effects in XTT assay;IA means inactive; type: functional, organism-based
[2] = system: HIV-1 reverse transcriptase (Human immunodeficiency virus 1); assay: Compound was tested for HIV-1 RT inhibition in in vitro assay;IA means inactive

Structure (SMILES)	Activity [1]	inhibition [2]
Nc1ccn([C@@H]2C[C@H](CO)C(CO)(CO)O2)c(=O)n1	inactive	inactive
Nc1ccn([C@H]2C[C@H](CO)C(CO)(CO)O2)c(=O)n1	inactive	inactive
Cc1cn([C@H]2C[C@H](CO)C(CO)(CO)O2)c(=O)[nH]c1=O	inactive	inactive
Cc1cn([C@@H]2C[C@H](CO)C(CO)(CO)O2)c(=O)[nH]c1=O	inactive	inactive

Reference: ChEMBL document CHEMBL1128139, “Synthesis of 2,3-dideoxy-3,4-dihydroxymethyl substituted pyrimidine nucleoside analogues” (Bioorg Med Chem Lett, 1995)
